Data: patent US11339167B2, “Substituted piperidines as kinase inhibitors” (Daewoong Pharmaceutical Co., Ltd., priority 2017, dated 2022)
pIC50: −log10 of the molar value. Where two headings read alike, the source gives them in different places.

Columns and labels:
human BTK = human BTK (Homo sapiens (Human), UniProt Q06187); test: BTK kinase inhibitory activity, ADP Glo kinase assay
human JAK3 = human JAK3 (Homo sapiens (Human), UniProt P52333); test: JAK3 kinase inhibitory activity, ADP Glo kinase assay; assay type: biochemical; settings: recombinant purified human JAK3, ATP 5 uM, Poly(Glu4,Tyr1) peptide, 1 hour 30° C.
Chain of human JAK3 (P52333 whole entry): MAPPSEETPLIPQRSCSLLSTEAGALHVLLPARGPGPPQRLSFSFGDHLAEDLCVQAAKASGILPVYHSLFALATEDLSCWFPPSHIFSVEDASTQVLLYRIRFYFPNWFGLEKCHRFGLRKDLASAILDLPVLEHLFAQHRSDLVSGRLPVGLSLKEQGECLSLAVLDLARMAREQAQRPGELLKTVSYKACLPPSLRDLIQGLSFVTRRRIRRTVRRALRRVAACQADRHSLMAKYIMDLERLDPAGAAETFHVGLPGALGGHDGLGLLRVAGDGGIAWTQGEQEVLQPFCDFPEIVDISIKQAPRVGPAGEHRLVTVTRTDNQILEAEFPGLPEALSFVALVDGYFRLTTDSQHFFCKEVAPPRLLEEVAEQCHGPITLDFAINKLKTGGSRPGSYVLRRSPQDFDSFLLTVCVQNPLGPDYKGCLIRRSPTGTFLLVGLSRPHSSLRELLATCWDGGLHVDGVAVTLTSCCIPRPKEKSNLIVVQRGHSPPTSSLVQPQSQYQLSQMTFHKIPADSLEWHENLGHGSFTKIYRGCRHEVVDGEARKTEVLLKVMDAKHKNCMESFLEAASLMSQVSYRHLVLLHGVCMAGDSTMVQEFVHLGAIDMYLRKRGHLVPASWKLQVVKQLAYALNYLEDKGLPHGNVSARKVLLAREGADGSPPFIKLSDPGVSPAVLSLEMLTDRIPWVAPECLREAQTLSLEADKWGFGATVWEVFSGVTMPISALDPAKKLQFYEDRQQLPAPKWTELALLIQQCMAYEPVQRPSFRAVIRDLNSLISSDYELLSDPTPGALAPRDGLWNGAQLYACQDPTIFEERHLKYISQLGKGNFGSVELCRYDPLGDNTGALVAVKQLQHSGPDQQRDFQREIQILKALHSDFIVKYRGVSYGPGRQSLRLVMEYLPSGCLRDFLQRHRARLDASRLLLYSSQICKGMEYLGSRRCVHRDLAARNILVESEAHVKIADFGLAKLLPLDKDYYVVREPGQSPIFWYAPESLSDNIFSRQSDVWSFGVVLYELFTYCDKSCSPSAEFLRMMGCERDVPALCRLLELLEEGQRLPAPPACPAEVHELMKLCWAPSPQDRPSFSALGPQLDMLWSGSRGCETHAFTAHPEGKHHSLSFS
Procedure: JAK3 and BTK kinases inhibitory activities were measured for the compounds prepared in the Examples through in vitro analysis on the ADP Glow (Glo) platform.
Specifically, the inhibitory activities against JAK3 and BTK kinase were measured using a JAK3 kinase assay kit (Promega, V9441) and a BTK kinase assay kit (Promega, V9071) which were purchased from Promega. […] After incubation (30° C.) for 1 hour, equivalent volume (25 uL per reaction) of ADP Glo was added and incubated (30° C.) for 40 minutes at room temperature. Then, a kinase detection reagent (50 uL per reaction) was added and incubated (30° C.) for 30 minutes at room temperature. The kinase activity was measured by chemiluminescence according to the instructions of ADP Glow kinase assay kit, and the inhibitory activity of the compounds according to the present disclosure was calculated.

[1] = read-out: BTK IC50, recombinant purified human BTK, ATP 10 uM, Poly(Glu4,Tyr1) peptide, 1 hour 30° C.

Chain of human BTK (Q06187 whole entry): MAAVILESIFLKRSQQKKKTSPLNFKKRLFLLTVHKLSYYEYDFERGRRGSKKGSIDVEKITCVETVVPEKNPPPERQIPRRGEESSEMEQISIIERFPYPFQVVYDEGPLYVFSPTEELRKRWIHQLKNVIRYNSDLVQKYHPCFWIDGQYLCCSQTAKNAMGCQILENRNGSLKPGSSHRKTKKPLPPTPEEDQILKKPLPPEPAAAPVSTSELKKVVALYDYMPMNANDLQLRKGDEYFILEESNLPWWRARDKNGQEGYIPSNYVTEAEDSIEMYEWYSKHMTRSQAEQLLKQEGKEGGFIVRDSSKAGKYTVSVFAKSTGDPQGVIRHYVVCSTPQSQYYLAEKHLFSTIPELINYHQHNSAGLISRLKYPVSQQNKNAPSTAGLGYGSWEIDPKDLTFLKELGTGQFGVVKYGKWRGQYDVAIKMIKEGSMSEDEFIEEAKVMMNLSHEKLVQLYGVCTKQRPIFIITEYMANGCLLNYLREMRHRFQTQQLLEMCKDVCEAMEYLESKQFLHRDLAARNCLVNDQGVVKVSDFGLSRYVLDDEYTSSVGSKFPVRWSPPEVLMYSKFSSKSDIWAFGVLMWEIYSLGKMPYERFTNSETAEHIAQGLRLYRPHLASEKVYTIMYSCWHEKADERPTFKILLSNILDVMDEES

pIC50 (human BTK; [1])	pIC50 (human JAK3)	pIC50 (human BTK)	BTK IC50 (human BTK; recombinant purified human BTK, ATP 10 uM, Poly(Glu4,Tyr1) peptide, 1 hour 30° C.)	SMILES
8.62	9.52			C=CC(=O)N1CC[C@@H](F)[C@@H](Oc2nc(Nc3cnn(CCO)c3)nc3[nH]ccc23)C1 [Example 30, 1-((3S,4R)-4-fluoro-3-((2-((1-(2-hydroxyethyl)-1H-pyrazol-4-yl)amino)-7H-pyrrolo[2,3-d]pyrimidin-4-yl)oxy)piperidin-1-yl)prop-2-en-1-one]
	9.22	8.23		C=CC(=O)N1CC[C@H](F)[C@H](Oc2nc(Nc3cnn(CC(F)F)c3)nc3[nH]cc(F)c23)C1 (racemic) [Example 16, 1-(cis-3-((2-((1-(2,2-difluoroethyl)-1H-pyrazol-4-yl)amino)-5-fluoro-7H-pyrrolo[2,3-d]pyrimidin-4-yl)oxy)-4-fluoropiperidin-1-yl)prop-2-en-1-one]
8.44	9.40			C=CC(=O)N1CC[C@@H](F)[C@@H](Oc2nc(Nc3cnn(C4CC4)c3)nc3[nH]cc(C)c23)C1 [Example 22, 1-((3S,4R)-3-(2-((1-cyclopropyl-1H-pyrazol-4-yl)amino)-5-methyl-7H-pyrrolo[2,3-d]pyrimidin-4-yloxy)-4-fluoropiperidin-1-yl)prop-2-en-1-one]
< 6.40	6.82			C=CC(=O)N1CC[C@H](F)[C@H](Oc2nc(Nc3cnoc3)nc3[nH]ccc23)C1 [Example 29]
	9.52	8.60		C=CC(=O)N1CC[C@@H](F)[C@H](Oc2nc(Nc3cnn(CC(F)F)c3)nc3[nH]ccc23)C1 (racemic) [Example 2, 1-(trans-3-((2-((1-(2,2-difluoroethyl)-1H-pyrazol-4-yl)amino)-7H-pyrrolo[2,3-d]pyrimidin-4-yl)oxy)-4-fluoropiperidin-1-yl)prop-2-en-1-one]
8.60	8.70			C=CC(=O)N1CC[C@@H](F)[C@@H](Oc2nc(Nc3cnn(CC)c3)nc3[nH]cc(F)c23)C1 [Example 27, 1-((3S,4R)-3-((2-((1-ethyl-1H-pyrazol-4-yl)amino)-5-fluoro-7H-pyrrolo[2,3-d]pyrimidin-4-yl)oxy)-4-fluoropiperidin-1-yl)prop-2-en-1-one]
	9.52	8.96		C=CC(=O)N1CC[C@@H](F)[C@H](Oc2nc(Nc3cnn(C4CC4)c3)nc3[nH]cc(C#N)c23)C1 (racemic) [Example 13, 4-((trans-1-acryloyl-4-fluoropiperidin-3-yl)oxy)-2-((1-cyclopropyl-1H-pyrazol-4-yl)amino)-7H-pyrrolo[2,3-d]pyrimidine-5-carbonitrile]
	9.15	7.94		C=CC(=O)N1CC[C@@H](F)[C@H](Oc2nc(Nc3cnoc3)nc3[nH]ccc23)C1 (racemic) [Example 23, 1-(trans-4-fluoro-3-((2-(isoxazol-4-ylamino)-7H-pyrrolo[2,3-d]pyrimidin-4-yl)oxy)piperidin-1-yl)prop-2-en-1-one]
8.70	9.70			C=CC(=O)N1CC[C@@H](F)[C@@H](Oc2nc(Nc3cnn(CC)c3)nc3[nH]cc(Cl)c23)C1 [Example 26, 1-((3S,4R)-3-((5-chloro-2-((1-ethyl-1H-pyrazol-4-yl)amino)-7H-pyrrolo[2,3-d]pyrimidin-4-yl)oxy)-4-fluoropiperidin-1-yl)prop-2-en-1-one]
	7.28			C=CC(=O)N1CC[C@H](F)[C@H](Oc2nc(Nc3cnn(C4CC4)c3)nc3[nH]ccc23)C1 [Example 35, 1-((3R,4S)-3-((2-((1-cyclopropyl-1H-pyrazol-4-yl)amino)-7H-pyrrolo[2,3-d]pyrimidin-4-yl)oxy)-4-fluoropiperidin-1-yl)prop-2-en-1-one]
	9.15	8.15		C=CC(=O)N1CC[C@H](F)[C@H](Oc2nc(Nc3cnn(CC(F)F)c3)nc3[nH]cc(C)c23)C1 (racemic) [Example 18, 1-(cis-3-((2-((1-(2,2-difluoroethyl)-1H-pyrazol-4-yl)amino)-5-methyl-7H-pyrrolo[2,3-d]pyrimidin-4-yl)oxy)-4-fluoropiperidin-1-yl)prop-2-en-1-one]
~6.40	8.23			C=CC(=O)N1CC[C@@H](F)[C@H](Oc2nc(Nc3cnn(CC)c3)nc3[nH]ccc23)C1 [Example 24, 1-((3R,4R)-3-((2-((1-ethyl-1H-pyrazol-4-yl)amino)-7H-pyrrolo[2,3-d]pyrimidin-4-yl)oxy)-4-fluoropiperidin-1-yl)prop-2-en-1-one]
8.47	9.40			C=CC(=O)N1CC[C@@H](F)[C@@H](Oc2nc(Nc3cnn(CC)c3)nc3[nH]cc(C)c23)C1 [Example 19, 1-((3S,4R)-3-((2-((1-ethyl-1H-pyrazol-4-yl)amino)-5-methyl-7H-pyrrolo[2,3-d]pyrimidin-4-yl)oxy)-4-fluoropiperidin-1-yl)prop-2-en-1-one]
< 6.40	7.08			C=CC(=O)N1CC[C@H](F)[C@H](Oc2nc(Nc3cc(C)ns3)nc3[nH]ccc23)C1 [Example 32, 1-((3R,4S)-4-fluoro-3-((2-((3-methylisothiazol-5-yl)amino)-7H-pyrrolo[2,3-d]pyrimidin-4-yl)oxy)piperidin-1-yl)prop-2-en-1-one]
< 7.10	8.05			C=CC(=O)N1CC[C@H](F)[C@H](Oc2nc(Nc3cnn(C4CCOCC4)c3)nc3[nH]ccc23)C1 [Example 33, 1-((3R,4S)-4-fluoro-3-((2-((1-(tetrahydro-2H-pyran-4-yl)-1H-pyrazol-4-yl)amino)-7H-pyrrolo[2,3-d]pyrimidin-4-yl)oxy)piperidin-1-yl)prop-2-en-1-one]
	6.69		No activity	C=CC(=O)N1CC[C@H](F)[C@H](Oc2nc(Nc3ccc(N4CCOCC4)cc3)nc3[nH]ccc23)C1 [Example 31, 1-((3R,4S)-4-fluoro-3-((2-((4-morpholinophenyl)amino)-7H-pyrrolo[2,3-d]pyrimidin-4-yl)oxy)piperidin-1-yl)prop-2-en-1-one]
8.82	9.70			C=CC(=O)N1CC[C@@H](F)[C@@H](Oc2nc(Nc3cnn(CC(F)F)c3)nc3[nH]ccc23)C1 [Example 6, 1-((3S,4R)-3-((2-((1-(2,2-difluoroethyl)-1H-pyrazol-4-yl)amino)-7H-pyrrolo[2,3-d]pyrimidin-4-yl)oxy)-4-fluoropiperidin-1-yl)prop-2-en-1-one]
8.89	9.70			C=CC(=O)N1CC[C@@H](F)[C@@H](Oc2nc(Nc3cc(C)ns3)nc3[nH]ccc23)C1 [Example 7, 1-((3S,4R)-4-fluoro-3-((2-((3-methylisothiazol-5-yl)amino)-7H-pyrrolo[2,3-d]pyrimidin-4-yl)oxy)piperidin-1-yl)prop-2-en-1-one]
	9.10			C=CC(=O)N1CC[C@@H](F)[C@@H](Oc2nc(Nc3cnn(C4CCNCC4)c3)nc3[nH]ccc23)C1 [Example 36, 1-((3S,4R)-4-fluoro-3-((2-((1-(piperidin-4-yl)-1H-pyrazol-4-yl)amino)-7H-pyrrolo[2,3-d]pyrimidin-4-yl)oxy)piperidin-1-yl)prop-2-en-1-one]
	9.70	8.89		C=CC(=O)N1CC[C@@H](F)[C@H](Oc2nc(Nc3cnn(CC)c3)nc3[nH]cc(C#N)c23)C1 (racemic) [Example 12, 4-((trans-1-acryloyl-4-fluoropiperidin-3-yl)oxy)-2-((1-ethyl-1H-pyrazol-4-yl)amino)-7H-pyrrolo[2,3-d]pyrimidine-5-carbonitrile]
